PubChem BioAssay AID1996
Converted amounts (≈) assume the structure as drawn.

Conditions: buffer; pH 7.4; 200.0 µM
Molecule `Cn1c(CCNC(=O)C2CCCCC2)nc2cc([N+](=O)[O-])ccc21` has a solubility kinetic of 44 µg/mL (≈ 133 µM). With `Cn1c(=NC(=O)COc2ccccc2)sc2ccccc21` the solubility kinetic was 0.8 µg/mL (≈ 2.68 µM). For `CN1CCN(C(=O)/C(=C\c2cccs2)NC(=O)c2ccccc2)CC1`, the solubility kinetic was over 53.3 µg/mL. `Cc1ccccc1-c1nc(C(=O)NCC2CCCO2)cc2c1[nH]c1ccccc12` (stereo not given) showed a solubility kinetic of 3.2 µg/mL (≈ 8.3 µM). Work on `O=C(/C=C/c1ccco1)OCC(=O)c1cccc([N+](=O)[O-])c1` yielded a solubility kinetic of 3.2 µg/mL (≈ 10.6 µM). In the case of `O=C(NCc1ccc(Cl)cc1)c1csc(-c2cccnc2)n1`, the solubility kinetic was 37.9 µg/mL (≈ 115 µM). `O=C(Cc1ccc(F)cc1)NC1CCSC1=O` (stereo not given) showed a solubility kinetic of over 38 µg/mL. `COc1ccccc1CNC(=O)CN1C(=O)NC2(CCC(C)CC2)C1=O` (stereo not given) gave a solubility kinetic of over 53.9 µg/mL. With `N/C(=N\OC(=O)Cc1ccccc1[N+](=O)[O-])c1ccccn1` the solubility kinetic was 42.3 µg/mL (≈ 141 µM). Work on `CCOc1ccc2nc(SCC(=O)NCc3ccc(OC)cc3)[nH]c2c1` yielded a solubility kinetic of 20.2 µg/mL (≈ 54.4 µM). `COC(=O)C/C(N)=C(\C#N)C(=O)OC` showed a solubility kinetic of over 29.7 µg/mL. In the case of `CC(CCc1ccccc1)NC(=O)COC(=O)c1cccn1C` (stereo not given), the solubility kinetic was over 47.2 µg/mL. In the case of `O=C(Nc1ccc2ccccc2c1)C(=O)C1C(=O)Nc2ccccc21` (stereo not given), the solubility kinetic was 3.7 µg/mL (≈ 11.2 µM). Molecule `CN(Cc1ccc2c(c1)OCCO2)C(=O)CSc1ncnc2sccc12` has a solubility kinetic of 41.8 µg/mL (≈ 108 µM). `COc1ccc(NC(=O)C2Cc3ccccc3O/C2=N\O)cc1` (stereo not given) gave a solubility kinetic of 10.2 µg/mL (≈ 32.7 µM). `O=C(c1ccncc1)N1CCN(CCc2ccccc2)CC1` gave a solubility kinetic of over 44.3 µg/mL. `Cc1cccc(C(=O)N2CCCC(c3nc(-c4ccc(C)o4)no3)C2)c1` (stereo not given) showed a solubility kinetic of 47.7 µg/mL (≈ 136 µM). `CSc1ncc(Cl)c(C(=O)Nc2ccccc2[N+](=O)[O-])n1` gave a solubility kinetic of under 0.2 µg/mL. With `Cc1ccc(N=Cc2c(O)n(C)c(=O)n(C)c2=O)cc1` the solubility kinetic was 6.1 µg/mL (≈ 22.3 µM). `Cc1ccc(CN(C)C(=O)c2c(C)nn(-c3ccccc3)c2C)cc1` showed a solubility kinetic of over 50 µg/mL. With `Cc1cc(Nc2cccc(F)c2)nc(N2CCOCC2)n1` the solubility kinetic was 36.2 µg/mL (≈ 126 µM). With `Cc1ccc(C)c(C(=O)Nc2nc3ccccc3[nH]2)c1` the solubility kinetic was 0.4 µg/mL (≈ 1.51 µM). Work on `O=S(=O)(c1ccc2oc(=S)[nH]c2c1)N1CCOCC1` yielded a solubility kinetic of over 45.1 µg/mL. Work on `CC(C)c1ccccc1NC(=O)Nc1ccc2c(c1)OCO2` yielded a solubility kinetic of 2.7 µg/mL (≈ 9.05 µM). For `O=C(Nc1nc2ccccc2[nH]1)c1cccc(Br)c1`, the solubility kinetic was 0.6 µg/mL (≈ 1.9 µM). Molecule `CC(C)(C)NC(=O)NC(=O)CN1CCN(c2ccccc2)CC1` has a solubility kinetic of over 47.8 µg/mL. For `Nc1nc(NCCOCCO)nc(N2CCCCCC2)c1[N+](=O)[O-]`, the solubility kinetic was 47.4 µg/mL (≈ 139 µM). For `O=C(O)CNC(=S)N(Cc1ccccc1Cl)C1CCCCC1`, the solubility kinetic was 49.1 µg/mL (≈ 144 µM). `Cc1cc(/C=C2/C(=O)NC(=O)N(C)C2=O)c(C)n1-c1ccccc1` showed a solubility kinetic of 1.1 µg/mL (≈ 3.4 µM). For `C[N+](C)(C)CCCCCC[N+](C)(C)C.[Br-]`, the solubility kinetic was over 54.3 µg/mL. Molecule `O=C(COC(=O)c1cccs1)Nc1ccccc1[N+](=O)[O-]` has a solubility kinetic of 2 µg/mL (≈ 6.53 µM). `Nc1ccc(-c2nc3ccc(N)cc3s2)cc1` gave a solubility kinetic of 17.7 µg/mL (≈ 73.3 µM). `CCCCn1c(N)c(N(CCOC)C(=O)c2ccc3c(c2)C(=O)N(c2ccccc2Cl)C3=O)c(=O)[nH]c1=O` gave a solubility kinetic of over 81 µg/mL. `O=C(COC(=O)c1ccccc1O)NCc1ccco1` gave a solubility kinetic of over 41.3 µg/mL. `CCCS(=O)(=O)c1cnc(C2COc3ccccc3O2)nc1N` (stereo not given) showed a solubility kinetic of 12.7 µg/mL (≈ 37.9 µM). Molecule `O=C(NC1CC1)c1cccc(S(=O)(=O)N2CCOCC2)c1` has a solubility kinetic of over 46.6 µg/mL. Work on `CCOc1ccc2nc(SCC(=O)NC3CC3)sc2c1` yielded a solubility kinetic of 13.1 µg/mL (≈ 42.5 µM). `CC(C)(C)c1ccc(OC(=O)N2CCOCC2)cc1` showed a solubility kinetic of 31.9 µg/mL (≈ 121 µM). `CCOc1ncccc1C(=O)OCC(=O)c1ccc(C)c(C)c1` showed a solubility kinetic of 17 µg/mL (≈ 54.3 µM). `O=C(C1CC(=O)N(c2ccc(Cl)cc2)C1)N1CCOCC1` (stereo not given) gave a solubility kinetic of 40 µg/mL (≈ 130 µM). Work on `COc1ccc(-c2noc(CN(C)C(=O)c3ccoc3C)n2)cc1` yielded a solubility kinetic of 40.6 µg/mL (≈ 124 µM). Molecule `Brc1ccc(OCc2nc3ccccc3[nH]2)cc1` has a solubility kinetic of 2.4 µg/mL (≈ 7.92 µM). Work on `CCOc1cc(CN2CCCCCC2)ccc1OC` yielded a solubility kinetic of 27.4 µg/mL (≈ 104 µM). For `C=CCN1CCN(C(=O)CCc2ccccc2)CC1`, the solubility kinetic was 35.6 µg/mL (≈ 138 µM). `CCOC(=O)C1C(c2ccccc2O)NC(=O)NC1(O)C(F)(F)F` (stereo not given) showed a solubility kinetic of over 52.2 µg/mL. For `Cc1cc(C(=O)N2CCN(C(=O)c3ccco3)CC2)ccc1[N+](=O)[O-]`, the solubility kinetic was 47.5 µg/mL (≈ 138 µM). Molecule `COC(=O)/C=C/c1c(C)nc(NCc2ccccc2)nc1Cl` has a solubility kinetic of over 47.7 µg/mL. For `O=C(Nc1ccc(Cl)cn1)C1CC1`, the solubility kinetic was over 29.5 µg/mL. In the case of `N#Cc1ncccc1CCc1cccc(Cl)c1`, the solubility kinetic was 22.4 µg/mL (≈ 92.3 µM). `CC(C)NC(=O)NC(=O)COC(=O)C1(C)CC1(Cl)Cl` (stereo not given) showed a solubility kinetic of over 46.7 µg/mL. `CCC(C)n1c(O)c(C=NC(C)c2ccccc2)c(=O)[nH]c1=S` (stereo not given) gave a solubility kinetic of 4.3 µg/mL (≈ 13 µM). For `OCC1OC(n2cnc3c(NC4CCCC4)ncnc32)C(O)C1O` (stereo not given), the solubility kinetic was over 50.3 µg/mL. With `CN1CC(=O)Nc2ccc(Br)cc2C1=O` the solubility kinetic was over 40.4 µg/mL. `CCCN1CCC(N2CCCC(C(=O)O)C2)CC1.Cl` (stereo not given) showed a solubility kinetic of over 49.1 µg/mL. Molecule `O=C1CC(c2ccccc2)Cc2nc(NC3CC3)ncc21` (stereo not given) has a solubility kinetic of 2.7 µg/mL (≈ 9.67 µM). In the case of `CCOC(=O)Cc1csc(CC(N)=O)[nH+]1.[Cl-]`, the solubility kinetic was over 39.7 µg/mL. Molecule `COc1ccnc2c1c(=O)n(Cc1cccc(Cl)c1)c(=O)n2C` has a solubility kinetic of 9.8 µg/mL (≈ 29.5 µM). In the case of `COc1ccc(N2CCN(CC(=O)c3ccc(Cl)cc3)CC2)cc1`, the solubility kinetic was 45.7 µg/mL (≈ 133 µM). `CSc1ccc(Cl)c(C(=O)OCC(=O)N(C)CCC#N)c1` gave a solubility kinetic of over 49 µg/mL. `COc1c(S(=O)(=O)Nc2cccnc2)ccc(Cl)c1Cl` showed a solubility kinetic of 30.8 µg/mL (≈ 92.4 µM).
